How the values were obtained:
[1] = tested on: RAW 264.7 cells; assay: Morphological changes in RAW 264.7 cells (inverted microscope); format: cell-based, murine; conditions: HEMA alone or with simultaneous NAC 20 mM, overnight
From the text: Peripheral Blood Mononuclear Cells

[2] = tested on: Caspase 3; assay: Full length caspase 3 in keratinocytes; format: cell-based; conditions: about 8 hours, NAC 20 mM
From the text: Roles of NFkB and GAPDH in HEMA-Mediated Cell Death

[3] = tested on: UCLA-2 cells (a primary oral tumor line); assay: VEGF release from UCLA-2 cells (Table 4); format: cell-based
Method: The cells were then grown in media containing β-glycerophosphate and ascorbic acid until they reached confluency. […] Supernatants were measured for VEGF release.

[4] = tested on: HEp2 cells co-cultured with PBMCs; assay: VEGF in co-cultures of HEMA/NAC treated HEp2 cells with PBMCs (multiplex cytokine array); format: cell-based, human; set-up: unit not given here
Method: (§1) Treatment with NAC inhibits HEMA-mediated cell death and cytotoxicity. Thus, its ability to protect the function of cells in the presence of HEMA was also evaluated further. […] The cells were trypsinized and washed 4 times with 1×PBS before they were co-cultured with PBMCs obtained from a healthy individual. A 4:1 ratio of effector to target cells (PBMC:HEp2) were used in these cultures. PBMCs were treated with and without IL-2 before they were co-cultured with HEp-2 cells. The supernatants were then removed from the co-cultures after an overnight incubation and analyzed using the FAST QUANT multiplex cytokine array kit to determine the levels of secreted cytokines.

[5] = tested on: Jurkat T cells; assay: Cell death in Jurkat T cells (PI/FITC-Annexin V); format: cell-based; conditions: 0.082M-0.0082M HEMA and/or NAC 20 mM simultaneously; overnight
Method: After an overnight incubation the levels of cell death in Jurkat T cells were determined using dual staining with PI/FITC-Annexin V as described previously (FIG. 19B). 10,000 events were analyzed for each sample. Similar results were obtained when apoptosis was assessed by PI staining of ethanol fixed Jurkat T cells. • 2. Decreased Levels of Full Length Caspase 9 and Caspase 3 in HEMA-Treated Keratinocytes

[6] = tested on: HEp2 cells co-cultured with PBMCs; assay: VEGF in co-cultures of HEMA/NAC treated HEp2 cells with PBMCs (multiplex cytokine array); format: cell-based, human; set-up: unit not given here; remark: listed apart in the source
[7] = tested on: HaCaT cells; assay: PI/Annexin V cell death in HaCaT skin keratinocytes; format: cell-based; conditions: HEMA 0.082M to 0.00164M alone or with NAC 20 mM, overnight
Method: Ten thousand events were analyzed for each sample. (FIG. 5)

[8] = tested on: Caspase 3; assay: Caspase 3 induction in Jurkat cells; format: cell-based; conditions: HEMA alone or with NAC 20 mM
[9] = tested on: human mesenchymal stem cells; assay: VEGF secretion of human mesenchymal stem cells (ELISA); format: cell-based; conditions: HEMA alone or with NAC 20 mM, 4 hours, then overnight
[10] = tested on: mesenchymal stem cells; assay: Cell death of mesenchymal stem cells (FITC-Annexin V and PI); format: cell-based
From the text: Treated mesenchymal stem cells were then removed and cell death determined using FITC-Annexin V and PI staining.

[11] = tested on: human dental pulp stromal cells; assay: VEGF by ELISA, human dental pulp stromal cells, NAC versus vitamin E (Table 5); format: cell-based; conditions: 4 hours
Method: Following the 4 hour incubation, cells were analyzed for apoptosis using FTIC-Annexin V and PI.
Dental pulp stromal cells were then treated as described in the preceding paragraph with supernatants removed and assayed for VEGF levels by ELISA following the 4 hour incubation.

[12] = tested on: GAPDH mRNA; assay: GAPDH mRNA in dental pulp stromal cells (RT-PCR); format: cell-based; conditions: HEMA alone or with NAC 20 mM, 4 hours
Method: The role of GAPDH in HEMA-mediated cytotoxicity was also evaluated. […] In comparison no significant decrease in β-actin and collagen-1 under the same experimental conditions could be seen.

[13] = tested on: caspases 9 and 3; assay: Full length caspases 9 and 3 in HEp2 cells (Western blot); format: cell-based; conditions: 0.0164M HEMA about 18 hours
Method: Protein concentrations were determined by a DC protein assay kit (Bio-Rad, Hercules, Calif.). An aliquot of total protein lysate was diluted in an equal volume of about 2% SDS sample buffer, about 6.2 mM Tris (pH about 6.8), about 2.3% SDS, about 5% mercaptoethanol, about 10% glycerol, and about 0.02% bromophenol blue and boiled for about 10 minutes. The cell lysates (40 μg) were then electrophoresed on 12% SDS-PAGE gels and were subjected to Western blot analysis. Levels of β-tubulin and actin were used to normalize the protein expression. Relative concentrations were assessed by densitometric analysis of digitized autographic images. The anti-actin and anti-β-tubulin monoclonal antibodies were purchased from Santa Cruz Biotechnology (Santa Cruz, Calif.) and from Calbiochem (San Francisco, Calif.) respectively. The polyclonal antibodies anti-caspase 3 and anti-caspase 9, were obtained from Cell Signaling (San Diego, Calif.). […] Decreased Processing and Cleavage of Caspase 3 in the Presence of NAC

[14] = tested on: HEp2 cells co-cultured with PBMCs; assay: IL-6 in co-cultures of HEMA/NAC treated HEp2 cells with healthy donor PBMCs; format: cell-based, human
Method: as §1, with “HEp-2 cells obtained from ATCC were cultured in DMEM supplemented” for “Treatment”, “10% FBS, 1% sodium pyruvate, 1% non essential amino acids” for “NAC inhibits HEMA-mediated cell death”, “1% antibiotic-antimycotic solution.” for “cytotoxicity. Thus, its ability to protect the function of cells in the presence of HEMA was also evaluated further.”

[15] = tested on: osteoblasts; assay: Cell death of osteoblasts differentiated from mesenchymal stem cells; format: cell-based
Method: In a subsequent study, mesenchymal stem cells were differentiated to osteoblasts in differentiation media. […] Treated osteoblasts were then removed and cell death was determined using FITC-Annexin V and PI staining.

[16] = tested on: GAPDH; assay: GAPDH protein in dental pulp stromal cells (KDalert GAPDH assay kit); format: cell-based; conditions: HEMA (0.082M) alone or with NAC 20 mM, 4 hours
Method: After 4 hours of incubation the protein levels of GAPDH were determined using a KDalert GAPDH assay kit (Ambion). This assay is a fluorescent based assay which measures the conversion of NAD+ to NADH catalyzed by GAPDH.

C=C(C)C(=O)OCCO [HEMA, hydroxyethyl methacrylate]
morphological changes (decreased size, blebbing, apoptotic bodies) [1]: morphological changes indicative of apoptosis
levels of full length caspase 3 (processing of caspase 3) [2]: decrease in the levels of full length caspase 3
UCLA-2 (VEFG secretion) ([3]; HEMA 0.00164M, alone or with NAC): 3258.8 pg/mL
UCLA-2 (VEFG secretion) ([3]; HEMA 0.0082M, alone or with NAC): 319.6 pg/mL
UCLA-2 (VEFG secretion) ([3]; HEMA 0.0164M, alone or with NAC): 180.2 pg/mL
VEGF ([4]; HEp2 +0.00164M HEMA, −/+NAC, Control PBMC +IL-2): 6923
VEGF ([4]; HEp2 +0.00164M HEMA, −/+NAC, Control PBMC −IL-2): 6640
VEGF ([4]; HEp2 +0.00164M HEMA, −/+NAC, No PBMC): 7139
VEGF ([4]; HEp2 +0.0164M HEMA, −/+NAC, Control PBMC +IL-2): 323
VEGF ([4]; HEp2 +0.0164M HEMA, −/+NAC, Control PBMC −IL-2): 582
VEGF ([4]; HEp2 +0.0164M HEMA, −/+NAC, No PBMC): 294
apoptotic cell death [5]: undergo apoptotic cell death
VEGF ([6]; HEp2 +0.00164M HEMA, −/+NAC, Patient PBMC +IL-2): 7760
VEGF ([6]; HEp2 +0.00164M HEMA, −/+NAC, Patient PBMC −IL-2): 6550
VEGF ([6]; HEp2 +0.0164M HEMA, −/+NAC 20 mM, about 18 hours, Patient PBMC −IL-2): 1161
VEGF ([6]; HEp2 +0.0164M HEMA, −/+NAC, Patient PBMC +IL-2): 379
apoptotic cell death (PI/Annexin V) [7]: dose dependent induction of apoptotic cell death
Caspase 3 induction [8]: increase in Caspase 3 induction
VEGF secretion [9]: significantly decreased secretion of VEGF
cells that underwent cell death ([10]; mesenchymal stem cells, 0.0164M HEMA): 86.1%
VEGF levels by ELISA, Human dental pulp stromal cells ([11]; HEMA 0.00164M, alone or with NAC and/or vitamin E): 57.26
VEGF levels by ELISA, Human dental pulp stromal cells ([11]; HEMA 0.0082M, alone or with NAC and/or vitamin E): 72.6 pg/mL
VEGF levels by ELISA, Human dental pulp stromal cells ([11]; HEMA 0.0164M, alone or with NAC (20 mM) and/or vitamin E (5 mM)): 73.79
GAPDH mRNA [12]: significant inhibition of GAPDH mRNA
full length caspases 9 and 3 levels [13]: diminishes full length caspases 9 and 3 levels
IL-6 ([14]; HEp2 +0.00082M HEMA, −/+NAC, PBMC +IL-2): 371 pg/mL
IL-6 ([14]; HEp2 +0.00082M HEMA, −/+NAC, PBMC −IL-2): 204 pg/mL
IL-6 ([14]; HEp2 +0.00164M HEMA, −/+NAC, PBMC +IL-2): 264 pg/mL
IL-6 ([14]; HEp2 +0.00164M HEMA, −/+NAC, PBMC −IL-2): 208 pg/mL
IL-6 ([14]; HEp2 +0.0082M HEMA, −/+NAC, PBMC +IL-2): 243 pg/mL
IL-6 ([14]; HEp2 +0.0082M HEMA, −/+NAC, PBMC −IL-2): 192 pg/mL
IL-6 ([14]; HEp2 +0.0164M HEMA, −/+NAC, PBMC +IL-2): 262 pg/mL
IL-6 ([14]; HEp2 +0.0164M HEMA, −/+NAC, PBMC −IL-2): 191 pg/mL
cells that underwent cell death ([15]; osteoblasts, 0.0164M HEMA): 49.7%
GAPDH protein expression [16]: significant decrease in GAPDH protein expression

CC(=O)N[C@@H](CS)C(=O)O [NAC, N-acetyl-cysteine]
morphological changes (decreased size, blebbing, apoptotic bodies) [1]: inhibited the occurrence of these morphological changes
levels of full length caspase 3 (processing of caspase 3) [2]: this decrease is inhibited
UCLA-2 (VEFG secretion) ([3]; NAC alone, no HEMA): 2831.9 pg/mL
VEGF ([4]; HEp2 −HEMA (+NAC), Control PBMC +IL-2): 5376
VEGF ([4]; HEp2 −HEMA (+NAC), Control PBMC −IL-2): 5260
VEGF ([4]; HEp2 −HEMA (+NAC), No PBMC): 4714
apoptotic cell death [5]: significantly blocked
VEGF ([6]; HEp2 −HEMA (+NAC 20 mM), Patient PBMC −IL-2): 5648
VEGF ([6]; HEp2 −HEMA (+NAC), Patient PBMC +IL-2): 5805
apoptotic cell death (PI/Annexin V) [7]: considerably decreased the percentages of cells positive for PI/Annexin V staining
Caspase 3 induction [8]: decreased the induction of caspase 3 expression
VEGF secretion [9]: prevented the HEMA-mediated decrease
prevention of HEMA-mediated cell death ([10]; NAC 20 mM, 18 hours): can prevent HEMA-mediated cell death
VEGF levels by ELISA, Human dental pulp stromal cells ([11]; no HEMA, NAC (20 mM) and/or vitamin E (5 mM)): 1532.4
GAPDH mRNA [12]: prevented this inhibition
full length caspases 9 and 3 levels [13]: inhibits HEMA-mediated decrease in caspases 9 and 3
IL-6 ([14]; HEp2 −HEMA (+NAC), PBMC +IL-2): 1835 pg/mL
IL-6 ([14]; HEp2 −HEMA (+NAC), PBMC −IL-2): 880 pg/mL
prevention of HEMA-mediated cell death ([15]; NAC 20 mM, 18 hours): can prevent HEMA-mediated cell death
GAPDH protein expression [16]: preventing the decrease in GAPDH protein expression

Reference: patent US8481005B2, “Methods to prevent cytotoxicity using N-acetyl-cysteine” (priority 2006, dated 2013)
